Test results from PMC13249053, “Mechanism of auranofin toxicity: Inhibition of tetrahydrobiopterin metabolism” (Toxicology and applied pharmacology, 2025).
Values joined by “and” are separate entries in the source; they are usually repeats but may differ in a detail not shown here. Equal values may be shown once. Read-outs that look alike come from different tables or passages of the source.

Columns and labels:
cells = test: Cell viability (alamarBlue) following drug treatments; details: cells pretreated with auranofin and/or methotrexate for 2 h, then sepiapterin 3 h
DHFR = target: T1, DHFR (Homo sapiens, UniProt P00374); test: Cellular DHFR activity: BH4 formation from BH2, human cell lines; assay type: cell-based; set-up: endogenous in cells; host or cells: HaCaT, Jurkat, BeWo, SKNMC, CX-1
T1 sequence (P00374 1-187): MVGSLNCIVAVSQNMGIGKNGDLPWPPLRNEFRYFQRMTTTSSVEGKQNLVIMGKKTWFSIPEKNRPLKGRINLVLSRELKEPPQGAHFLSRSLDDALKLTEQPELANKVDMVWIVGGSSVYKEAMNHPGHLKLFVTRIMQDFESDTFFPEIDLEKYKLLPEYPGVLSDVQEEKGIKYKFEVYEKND
Protocol: Metabolic products of sepiapterin (BH2 and BH4) in intact cells and cell lysates were measured using HPLC as previously described ([Ferre and Naylor, 1988]) with some modifications ([Yang et al., 2013]; [Yang et al., 2015]). Briefly, cells in six-well culture dishes were grown until 60–70 % confluent (~1 × 10^6 cells/well). The growth medium was then removed and the cells incubated with growth medium containing 100 μM sepiapterin. After 3 h, cells were harvested, centrifuged (1500 g, 10 min), and pellets suspended in 200 μl of lysis buffer (50 mM Tris-HCl, pH 7.4, 137 mM NaCl, 0.5 % Nonidet P-40 (NP-40), 0.5 mM EDTA) for 20 min on ice. […] Thirty min later, 50 μl of 1 M H3PO4 was added to the supernatants and the precipitated proteins removed by centrifugation (15,000 g, 3 min). After standing for 10 min at room temperature, excess iodine was reduced by the addition of 25 μl of 57 mM ascorbic acid to the reaction mix. BH2 and BH4 were then analyzed on a Jasco high-performance liquid chromatography system (Easton, MD) fitted with a Maxsil-10 C18 column (250 × 4 mm; Phenomenex, Torrance, CA). Fluorescence was monitored using a Jasco FP-2020 spectrofluorometer with excitation and emission wavelengths set at 362 and 435 nm, respectively ([Yang et al., 2013]; [Yang et al., 2015]).
Fig. 8. […] DHFR enzyme activity in the cells was assayed by the metabolism of BH2 to BH4. Upper panels. HaCaT cells were treated with control medium or medium containing increasing concentrations of auranofin for 2 h followed by the addition of 200 μM BH2. After an additional 3 h, cells were rinsed with PBS and BH2 and BH4 analyzed by HPLC as described in the Materials and Methods. Lower panels. […] Cells were treated with the drug for increasing periods of time (0–2 h) followed by 200 μM BH2. After an additional 3 h, cells were rinsed with PBS and analyzed for BH2 and BH4 content.

SPR [1] = target: T2, SPR (Homo sapiens, UniProt P35270); test: Sepiapterin reduction by recombinant SPR (absorbance at 420 nm); assay type: biochemical; set-up: made in house
Protocol: (§1) Sepiapterin reductase activity was assayed by measuring decreases in sepiapterin absorbance at 420 nm as described by Kato ([Kato, 1971]) with some modifications. Briefly, standard reaction mixes contained 100 mM potassium phosphate buffer, pH 7.0, 100 μM NADPH, 50 μM sepiapterin and 1 μg of enzyme protein in a final volume of 0.2 ml. Changes in absorbance of sepiapterin were monitored using a Spectramax M5 microplate reader (Molecular Devices, Sunnyvale, CA). […] Chemical redox cycling by SPR was assayed by measuring the formation of superoxide anion in the presence of menadione as previously described ([Yang et al., 2013]). […] Superoxide anion was measured spectrophotometrically by the reduction of acetylated cytochrome c at 550 nm. DHFR activity was measured as previously described ([Whitsett et al., 2013]) with some modifications. […] Enzyme activity was monitored by decreases in absorbance of NADPH at 340 nm using a microplate reader. […]
(§2) Fig. 5. […] SPR was measured in enzyme assays by decreases in sepiapterin absorbance at 420 nm as described in the Materials and Methods. DHFR activity in enzyme assays was measured by decreases in absorbance of NADPH at 340 nm. […] Redox cycling was measured spectrophotometrically by the reduction of acetylated cytochrome c at 550 nm during the formation of superoxide anion in enzyme assays in the presence of 100 μM menadione.

SPR [2] = target: T2, SPR; test: Chemical (menadione) redox cycling by recombinant SPR, superoxide anion formation; assay type: biochemical; set-up: made in house; details: acetylated cytochrome c reduction at 550 nm, pH 7.8, read-out: IC50, inhibition of chemical redox cycling (superoxide anion production) by recombinant SPR
Protocol: as §1, §2

T2 sequence (P35270 whole entry): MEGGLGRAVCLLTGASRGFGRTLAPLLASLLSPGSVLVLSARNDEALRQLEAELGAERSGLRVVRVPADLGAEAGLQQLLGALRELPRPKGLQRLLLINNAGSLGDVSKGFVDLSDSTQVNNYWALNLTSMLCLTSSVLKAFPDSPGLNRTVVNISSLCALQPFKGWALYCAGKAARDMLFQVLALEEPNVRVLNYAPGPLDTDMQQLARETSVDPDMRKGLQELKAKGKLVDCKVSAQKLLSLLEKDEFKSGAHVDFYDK

For `CC[PH](CC)(CC)[Au][S][C@@H]1O[C@H](COC(C)=O)[C@@H](OC(C)=O)[C@H](OC(C)=O)[C@H]1OC(C)=O` [auranofin, 2,3,4,6-tetra-O-acetyl-1-thio-β-D-glucopyranosato-S-triethyl phosphine gold], the “cell viability following drug treatments” value (cells) was “greater than 95%”, the IC50 (DHFR; BeWo (human choriocarcinoma), BH4 formation from BH2, read-out: DHFR IC50, BeWo cells) was 3.9 ± 0.15 µM and the IC50 (DHFR; CX-1 (human colon adenocarcinoma), BH4 formation from BH2, read-out: DHFR IC50, CX-1 cells) was 7.3 ± 0.1 µM. For the same molecule, the IC50 (DHFR; HaCaT (human keratinocytes), auranofin 2 h, then 200 μM BH2 3 h, read-out: DHFR IC50, HaCaT cells) was 6.3 ± 0.75 µM, the “time of pretreatment to maximal inhibition of cellular DHFR” value (DHFR; HaCaT cells, 20 μM auranofin) was 2 h and the IC50 (DHFR; Jurkat (human leukemia), BH4 formation from BH2, read-out: DHFR IC50, Jurkat cells) was 5.4 ± 0.07 µM. For the same molecule, the IC50 (DHFR; SKNMC (human neuroblastoma), BH4 formation from BH2, read-out: DHFR IC50, SKNMC cells) was 15.2 ± 0.53 µM, the “recombinant SPR activity versus control” value (SPR [1]; 10 μM auranofin, n = 3, P < 0.05) was “Significantly different” and the IC50 (SPR [1]; 50 μM sepiapterin, 100 μM NADPH, pH 7.0, auranofin added 10 min before, read-out: IC50, inhibition of sepiapterin reduction by recombinant SPR) was 1.5 µM and 1.53 µM. For the same molecule, the IC50 (SPR [2]) was 0.6 µM.
